According to article PMC3855626 (Biochemistry, 2013):
Several values for one entry are separate records, joined by “and”; a condition that tells them apart may be missing. Identical values can stand only once. Marks after values point to notes of the source that are not given here.

Tests used:
M2 D103N = M2 D103N (Homo sapiens, UniProt P08172, D103N); assay type: binding
M2 D69N = assay type: binding, human
M2 D103N + M2 D69N = assay type: binding, human
M2 D69N/D103N [1] = molecular target: T1, M2 D69N/D103N (Homo sapiens, UniProt P08172, D103N/D69N); assay type: binding
T1 sequence (P08172 whole entry D69N/D103N, looked up): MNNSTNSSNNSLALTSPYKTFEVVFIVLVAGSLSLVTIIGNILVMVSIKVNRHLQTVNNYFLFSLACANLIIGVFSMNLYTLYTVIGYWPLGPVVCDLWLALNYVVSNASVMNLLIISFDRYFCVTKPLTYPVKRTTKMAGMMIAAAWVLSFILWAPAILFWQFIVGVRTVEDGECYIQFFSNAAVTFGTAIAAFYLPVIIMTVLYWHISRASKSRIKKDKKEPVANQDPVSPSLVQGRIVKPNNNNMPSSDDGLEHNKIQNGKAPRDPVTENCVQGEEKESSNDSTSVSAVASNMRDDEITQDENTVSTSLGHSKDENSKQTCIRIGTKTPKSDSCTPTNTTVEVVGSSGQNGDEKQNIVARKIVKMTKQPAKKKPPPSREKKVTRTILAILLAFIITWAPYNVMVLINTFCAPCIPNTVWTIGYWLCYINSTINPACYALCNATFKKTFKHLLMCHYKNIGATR

M3 D148N = assay type: binding, human
M3 D114N = assay type: binding, human
M3 D148N + M3 D114N = assay type: binding, human
M3 D114N/D148N [2] = molecular target: T2, M3 D114N/D148N (Homo sapiens, UniProt P20309, D114N/D148N); assay type: binding
T2 sequence (P20309 whole entry D114N/D148N, looked up): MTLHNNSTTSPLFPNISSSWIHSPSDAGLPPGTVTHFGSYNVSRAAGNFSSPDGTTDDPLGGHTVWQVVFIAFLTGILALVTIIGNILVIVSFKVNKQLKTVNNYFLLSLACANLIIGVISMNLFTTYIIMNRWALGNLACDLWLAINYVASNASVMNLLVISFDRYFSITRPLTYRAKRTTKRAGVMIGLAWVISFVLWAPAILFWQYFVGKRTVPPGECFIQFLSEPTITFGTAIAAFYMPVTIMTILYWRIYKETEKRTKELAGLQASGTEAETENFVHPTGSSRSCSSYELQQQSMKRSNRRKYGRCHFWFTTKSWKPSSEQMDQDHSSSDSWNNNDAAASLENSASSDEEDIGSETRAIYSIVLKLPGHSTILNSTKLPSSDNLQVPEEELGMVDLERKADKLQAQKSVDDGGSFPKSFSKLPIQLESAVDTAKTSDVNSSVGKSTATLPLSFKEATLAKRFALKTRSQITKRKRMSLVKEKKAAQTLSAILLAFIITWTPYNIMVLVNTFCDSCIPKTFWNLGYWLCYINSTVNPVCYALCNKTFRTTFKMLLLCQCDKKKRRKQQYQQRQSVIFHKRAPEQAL

M4 D112N = assay type: binding, human
M4 D78N = assay type: binding, human
M4 D1 12N + M4 D78N = assay type: binding, human
M4 D78N/D112N [3] = molecular target: T3, M4 D78N/D112N (Homo sapiens, UniProt P08173, D112N/D78N); assay type: binding
T3 sequence (P08173 whole entry D78N/D112N, looked up): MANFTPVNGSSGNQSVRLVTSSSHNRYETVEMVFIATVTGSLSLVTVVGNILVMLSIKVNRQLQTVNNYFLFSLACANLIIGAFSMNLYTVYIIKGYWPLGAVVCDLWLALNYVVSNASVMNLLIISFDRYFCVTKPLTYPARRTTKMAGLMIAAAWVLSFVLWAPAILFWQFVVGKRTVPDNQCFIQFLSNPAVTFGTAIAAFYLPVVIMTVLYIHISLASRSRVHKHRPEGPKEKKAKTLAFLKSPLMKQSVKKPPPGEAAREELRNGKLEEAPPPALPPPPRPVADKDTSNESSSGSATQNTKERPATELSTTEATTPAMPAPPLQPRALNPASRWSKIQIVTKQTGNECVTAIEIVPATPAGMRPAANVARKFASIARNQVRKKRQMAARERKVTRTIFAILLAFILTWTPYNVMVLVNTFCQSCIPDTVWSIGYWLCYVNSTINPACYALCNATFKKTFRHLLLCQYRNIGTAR

wild type M4 receptor = wild type M4 receptor (Homo sapiens, UniProt P08173); assay: biochemical; assay type: binding
Chain of wild type M4 receptor (P08173 whole entry): as the sequence (P08173 whole entry D78N/D112N, looked up) above, with N78D, N112D counted along it

M2 D69N/D103N [4] = molecular target: T1, M2 D69N/D103N; assay type: binding; remark: listed apart in the source
M4 D78N/D112N [5] = molecular target: T3, M4 D78N/D112N; assay type: binding; remark: listed apart in the source
M2 D69N/D103N [6] = molecular target: T1, M2 D69N/D103N; assay: biochemical; assay type: binding
M4 D78N/D112N [7] = molecular target: T3, M4 D78N/D112N; assay: biochemical; assay type: binding
[8] = molecular target: wild type M1 muscarinic receptors (Homo sapiens, UniProt P11229); assay type: binding
Chain of wild type M1 muscarinic receptors (P11229 whole entry): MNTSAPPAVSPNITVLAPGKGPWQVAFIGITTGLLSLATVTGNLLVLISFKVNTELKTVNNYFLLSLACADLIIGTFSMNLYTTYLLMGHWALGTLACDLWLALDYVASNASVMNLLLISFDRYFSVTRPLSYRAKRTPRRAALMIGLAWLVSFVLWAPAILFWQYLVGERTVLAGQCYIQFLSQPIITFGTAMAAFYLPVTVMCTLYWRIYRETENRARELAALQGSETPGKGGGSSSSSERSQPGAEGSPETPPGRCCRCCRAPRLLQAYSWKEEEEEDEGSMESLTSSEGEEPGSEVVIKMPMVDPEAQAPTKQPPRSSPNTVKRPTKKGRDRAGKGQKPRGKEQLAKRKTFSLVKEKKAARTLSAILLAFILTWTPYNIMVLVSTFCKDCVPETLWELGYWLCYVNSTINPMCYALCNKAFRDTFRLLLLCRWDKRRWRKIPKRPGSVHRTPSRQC

[9] = molecular target: wild type M2 muscarinic receptors (Homo sapiens, UniProt P08172); assay type: binding
Chain of wild type M2 muscarinic receptors (P08172 whole entry): as the sequence (P08172 whole entry D69N/D103N, looked up) above, with N69D, N103D counted along it

[10] = test system: cerebral muscarinic receptors; assay type: binding, rat
M3 receptors = assay type: binding, human
M4 receptors = assay type: binding, human
[11] = test system: M1 – M4 muscarinic receptors; assay type: binding, human
guinea pig ileum = settings: cited from earlier work
M2 wild type = M2 wild type (Homo sapiens, UniProt P08172); assay type: binding
Chain of M2 wild type (P08172 whole entry): as the sequence (P08172 whole entry D69N/D103N, looked up) above, with N69D, N103D counted along it

wild type M4 receptors = assay type: binding, human
M3 D114N/D148N [12] = molecular target: T2, M3 D114N/D148N
[13] = read-out: inhibition of [3H]NMS binding

Chain of M2 D103N (P08172 whole entry D103N, looked up): as the sequence (P08172 whole entry D69N/D103N, looked up) above, with N69D counted along it

Compound: CN(CC#CCOC(=O)Nc1cccc(Cl)c1)CCBr [BR384, 4-[(2-bromoethyl)methyl-amino]-2-butynyl N-(3-chlorophenyl)carbamate]
- Δ log K1 (M2 D103N): 1.23 ± 0.26
- increase in affinity relative to wild type (M2 D69N): about 30 fold
- Δ log K1 (M2 D69N): −1.39 ± 0.35
- Δ log K1 (M2 D103N + M2 D69N): −0.17 ± 0.43
- Δ log K1 (M2 D69N/D103N [1]): −0.25 ± 0.25
- Δ log K1 (M3 D148N): 1.17 ± 0.07
- increase in affinity relative to wild type (M3 D114N): ~5 fold
- Δ log K1 (M3 D114N): −0.69 ± 0.02
- Δ log K1 (M3 D148N + M3 D114N): 0.48 ± 0.08
- Δ log K1 (M3 D114N/D148N [2]): 0.75 ± 0.12
- Δ log K1 (M4 D112N): 0.65 ± 0.13
- increase in affinity relative to wild type (M4 D78N): about 30 fold
- Δ log K1 (M4 D78N): −1.27 ± 0.11
- Δ log K1 (M4 D1 12N + M4 D78N): −0.62 ± 0.17
- Δ log K1 (M4 D78N/D112N [3]): 0.69 ± 0.32 ^c
- average estimate of k1 (wild type M4 receptor): 0.82 min⁻¹
- b (proportion of receptors that can bind [3H]NMS but not be alkylated) (wild type M4 receptor): 7.7 ± 1.8% and 7.7%
- k1 (rate constant for alkylation) (wild type M4 receptor): 0.93 ± .020 min⁻¹
- rate constant (k1) (wild type M4 receptor): 0.99 ± 0.045 min⁻¹ and 1.05 ± 0.10 min⁻¹ and 0.75 ± 0.06 min⁻¹ and 0.74 ± 0.086 min⁻¹
- Kd (wild type M4 receptor; average estimate of log K1): 8.71 µM
- Kd (wild type M4 receptor; log K1 (dissociation constant of the aziridinium ion)): 8.91 µM
- Kd (wild type M4 receptor; log dissociation constant (log K1)): 12.3 µM and 7.94 µM and 6.76 µM
- alkylation (M2 D69N/D103N [4]): 48 ± 4.2%
- alkylation (M4 D78N/D112N [5]): 44 ± 0.6%
- IC50 (M2 D69N/D103N [6]): 28.8 µM
- inhibition at 300 µM (M2 D69N/D103N [6]; [13]): 97 ± 1.3%
- IC50 (M4 D78N/D112N [7]): 69.2 µM
- inhibition at 300 µM (M4 D78N/D112N [7]; [13]): 88 ± 0.7%
- receptors alkylated after adding the stopping solution [8]: 28%
- receptors alkylated after adding the stopping solution [9]: 28%
- rate of recovery of [3H]NMS binding [10]: negligible
- maximum estimate of b (M3 receptors): 0.067
- maximum estimate of b (M4 receptors): 0.085
- affinity of the aziridinium ion relative to McN-A-343 [11]: four- to seven-fold higher affinity
- contractile action (guinea pig ileum): lack of contractile action

Compound: CC(=O)OCC[N+](C)(C)C [Acetylcholine, acetylcholine]
- Hill slope of competition curve (M2 wild type): 0.69
- affinity relative to the aziridinium ion of AChM (M2 wild type): about 15 fold
- affinity relative to the aziridinium ion of AChM (wild type M4 receptors): five-fold higher affinity
- Hill slope of competition curve (M3 D114N/D148N [12]): 0.56
